From US10881650B2, “Pharmaceutical compositions” (priority 2007, dated 2021)
“Also recorded” adds a separate entry of the source.

What was measured:
[1] = tested on: postmenopausal women with vaginal atrophy; assay: Vaginal examination: secretions, color, epithelial integrity, surface thickness (ERC-210); type: in vivo; conditions: 2, 4, 8 and 12 weeks
From the text: At the same time intervals of 2, 4, 8 and 12 weeks, the gynecologist or physician in charge of the study at each site performed a vaginal exam to evaluate the degree of severity (none, mild, moderate or severe, analyzed using values of 0, 1, 2 and 3, respectively) for the main signs of vaginal atrophy, namely vaginal secretions, vaginal color, vaginal epithelial integrity and vaginal epithelial surface thickness. […] In fact, the beneficial effects observed by the gynecologist and or physician are almost superimposable to those self-reported by women on their most bothersome symptoms.
Vaginal examination was performed at screening and then at day 1 and at 2, 4, 8 and 12 weeks. Vaginal secretions, vaginal color, vaginal epithelial integrity and vaginal epithelial surface thickness were evaluated according to the following degrees of severity: none, mild, moderate or severe.

[2] = Serum levels of DHEA and eleven metabolites after daily intravaginal DHEA suppositories (clinical trial ERC-213); type: in vivo, 40-75 year-old postmenopausal women; conditions: 0.5% DHEA intravaginal
From the text: The primary objective of that study was the evaluation of the systemic bioavailability of DHEA and its metabolites following daily intravaginal application of suppositories at four different DHEA concentrations. This study was a randomized, placebo-controlled and double-blind trial of 10-subjects per arm.

[3] = cited from earlier work
[4] = tested on: endometrium; assay: Endometrial biopsy histology (ERC-210); type: in vivo, postmenopausal women; conditions: 3 months of intravaginal administration
Description: Endometrial biopsy was performed at screening and at month 3 at end of study. All biopsies were examined by the same pathologist at the central laboratory (Dr. Robert Dubé, Department of cytology-pathology, Enfant-Jésus Hospital, Quebec City, Canada).

[5] = Bioavailability and metabolism of oral and percutaneous DHEA: serum steroids on 1st and 14th day
From the text: Thirty-six healthy 60-70-year-old postmenopausal women participated in the study after IRB approval and having given their written informed consent. Body weight was within ±20% of normal body weight according to Metropolitan Life Tables.
This study was a randomized open-label trial of 12 subjects per arm. After written informed consent was obtained and women were found eligible, each subject was randomized to receive DHEA by cream, gel or orally. Daily, before breakfast, for 14 days, subjects received, at the research clinic, either 4 g of 10% DHEA gel or 4 g of 10% DHEA cream applied on a total 30 cm×30 cm area of the thighs or two 50 mg capsules of DHEA orally before breakfast.
Blood sampling was performed at 08:00-09:00 h at screening and before application of DHEA, on the first day of dosing, as well as on days 2, 4, 7, 10 and 14. On the 1st and 14th days, blood samples were obtained at 0.5 h, 1 h, 1.5 h, 2 h, 3 h, 4 h, 5 h, 6 h, 7 h, 8 h, 12 h and 24 h following DHEA administration.
DHEA, DHEA-S, androst-5-ene-3β,17β-diol (5-diol), testosterone, androstenedione (4-dione), 17β-estradiol (E2), estrone (E1), estrone sulfate (E1-S), androsterone glucuronide (ADT-G), and androstane-3*,17β-diol glucuronide (3α-diol-G) were measured by gas chromatography/mass spectrometry (DHEA, 5-diol, 4-dione, testosterone, E1 and E2) using electron impact or chemical ionization and by liquid chromatography/tandem mass spectrometry using turboionspray (DHEA-S, E1-S, ADT-G and 3α-diol-G) as described (Labrie, Bélanger et al., 2006; Labrie, Bélanger, et al, 2007b and Swanson et al. 2007).
On days 1 and 14, the area under the curve of the serum concentration of each steroid was measured between 0 h and 24 h (AUC0-24 h). The areas under the curves were calculated by a linear trapezoidal method (model-independent). The relative bioavailability of the DHEA gel, DHEA cream and DHEA capsules was based on the mean difference in the log-transformed AUC values. All calculations were performed with the SAS software (SAS Institute, Cary, N.C., USA).

[6] = one week daily intravaginal, mass spectrometry (Labrie, Cusan et al. 2008); cited from earlier work
[7] = tested on: postmenopausal women with vaginal atrophy; conditions: cited from earlier work
[8] = tested on: endometrium; conditions: cited from earlier work
[9] = daily oral 50 mg (Arlt et al. 2001)
[10] = 24 h after 14th daily administration, oral or percutaneous

SMILES: C[C@]12CC[C@H](O)CC1=CC[C@@H]1[C@@H]2CC[C@]2(C)C(=O)CC[C@@H]12 [DHEA, dehydroepiandrosterone]
- Signs of vaginal atrophy at vaginal exam [1]: highly statistically significant improvement of all four signs of vaginal atrophy
- Serum levels of active estrogens (E1, E2, E1S) and androgens (testo, DHT) [2]: not significantly affected; also recorded: does not increase
- Serum DHEA and testosterone levels ([3]; 23 h after last administration, 25 mg oral 6 months): not changed significantly
- Effect on serum testosterone or DHT [3, 9]: no significant effect
- Increase of DHEA and ADT-G [3, 9]: 80-90%
- Androgen metabolites as % of levels found in premenopausal women ([3]; daily oral 100 mg (Labrie, Bélanger et al. 2007)): 74%
- Effect on endometrial histology [4]: no effect on endometrial histology
- Change in serum E1, E2 or testosterone AUC0-24 h ([5]; 14th day compared to predosing): no significant change
- Change in serum DHEA-S ([5]; 14th day, application of DHEA on the skin): No significant change
- Change in serum E1-S [5, 10]: did not change
- Change in serum levels of E1 or E2 [5, 10]: no significant change
- Change of serum ADT-G or 3α-diol-G ([5]; day 1, up to 24 h, 4 g of 10% DHEA on the skin): no significant change
- Change in serum ADT-G ([5]; day 14, application of DHEA on the skin): No significant change
- Change in serum 3α-diol-G ([5]; day 14, percutaneous administration): No significant change
- Higher level of transformation of DHEA into ADT-G and 3α-diol-G, oral vs percutaneous ([5]; female, human, serum, po): approximately 10 fold
- Transformation of DHEA into 4-dione, oral compared to percutaneous ([5]; female, human, serum, po): 2.70-3.76 times
- Change in serum E1-S ([5]; first 24 h): did not change significantly
- Effect on serum levels of E1 or E2 ([5]; first 24 h, oral or percutaneous route): no statistically significant effect

SMILES: C[C@]12CC[C@@H]3c4ccc(O)cc4CC[C@H]3[C@@H]1CC[C@@H]2O [E2, 17β-estradiol]
- Increase in serum E2 [6]: 5 fold
- Cases with persisting dyspareunia ([7]; 25 μg intravaginally, 12 months (Simunic 2003)): 12.4%
- Patients having a pH less than 5.0 ([7]; 12 weeks intravaginal 25 μg (Bachmann 2008)): 51%

SMILES: CCCCC(=O)O[C@H]1CC[C@H]2[C@@H]3CCc4cc(O)ccc4[C@H]3CC[C@]12C [estradiol valerate]
- Increase of Ki labeling ([8]; 2 mg/day, 3 months (Zang 2007)): 50%

SMILES: CCCCCCCCCCC(=O)O[C@H]1CC[C@H]2[C@@H]3CCC4=CC(=O)CC[C@]4(C)[C@H]3CC[C@]12C [testosterone undecanoate]
- Effect on the endometrium ([8]; 40 mg every second day (Zang 2007)): no effect on the endometrium

SMILES: C[C@]12CC[C@H]3[C@@H](CCC4=CC(=O)CC[C@@]43C)[C@@H]1CC[C@@H]2O [testosterone]
- Proliferation with simultaneous administration of testosterone ([8]; with estradiol valerate 2 mg/day (Zang 2007)): 28%
